Values of other authors, collected in patent publication US20210128691A1 (priority 2019, published 2021).

Assays:
[1] = in vivo
cyclic nucleotide PDE = conditions: rats made hypothyroid with increased PDE activity
pre-eclampsia = conditions: dietary supplements, high risk patients

With `CN1CC(=O)N2[C@H](c3ccc4c(c3)OCO4)c3[nH]c4ccccc4c3C[C@@H]2C1=O` [tadalafil] as the molecule, how does the half-life [1] read?
The half-life was 17 to 18 h.

Which “time to peak levels following ingestion” value does the source give for `N[C@@H](Cc1cc(I)c(Oc2ccc(O)c(I)c2)c(I)c1)C(=O)O` [T3, L-tri-iodothyronine] here?
The value was “one to two”.

What about the “rise of serum concentration (amount of drug in circulation)” value (following ingestion) of the same molecule?
The value was 250% to 600.

And the “PDE activity after administration” value (cyclic nucleotide PDE)?
Its value is “returned to normal”.

For `N=C(N)NCCC[C@H](N)C(=O)O` [L-arginine], which “incidence of PE” value (pre-eclampsia) is on record?
The value was “significantly reduce, but not eliminate”.

Which half-life [1] does the source give for `N[C@@H](Cc1cc(I)c(Oc2cc(I)c(O)c(I)c2)c(I)c1)C(=O)O` [T4, L-thyroxine] here?
Its half-life is 120 to 170 h.
